{"source": "ChEMBL document CHEMBL1201862", "about": "“PubChem BioAssay data set” (2004)", "key": {"[1]": {"experiment": "DRD fibroblast viability loss – cell-based, non-viral oncogenic, luminescence, dose response (AID 1934)", "format": "functional", "details": "Homo sapiens"}, "BJ [2]": {"tested_on": "BJ", "experiment": "growth inhibition of engineered Ras-driven BJ cells – cell-based, alamar blue fluorescence, cherrypicked samples, dose response (AID 2631)", "format": "functional", "details": "Homo sapiens"}, "BJ [3]": {"tested_on": "BJ", "experiment": "cells", "format": "functional, cell-based", "details": "Homo sapiens"}, "[4]": {"experiment": "viability of uninfected HEp-2 cells – cell-based, HTS, cytotoxicity control for RSV inhibitor project, dose response (AID 2410)", "format": "functional", "details": "human respiratory syncytial virus"}, "BJ [5]": {"tested_on": "BJ", "experiment": "BJ-TERT fibroblast viability loss – cell-based, RAS-independent, luminescence, dose response (AID 1933)", "format": "functional", "details": "Homo sapiens"}, "[6]": {"biological_target": "Adenosylmethionine-8-amino-7-oxononanoate aminotransferase (Mycobacterium tuberculosis, UniProt P9WQ81)", "sequence (P9WQ81 whole entry)": "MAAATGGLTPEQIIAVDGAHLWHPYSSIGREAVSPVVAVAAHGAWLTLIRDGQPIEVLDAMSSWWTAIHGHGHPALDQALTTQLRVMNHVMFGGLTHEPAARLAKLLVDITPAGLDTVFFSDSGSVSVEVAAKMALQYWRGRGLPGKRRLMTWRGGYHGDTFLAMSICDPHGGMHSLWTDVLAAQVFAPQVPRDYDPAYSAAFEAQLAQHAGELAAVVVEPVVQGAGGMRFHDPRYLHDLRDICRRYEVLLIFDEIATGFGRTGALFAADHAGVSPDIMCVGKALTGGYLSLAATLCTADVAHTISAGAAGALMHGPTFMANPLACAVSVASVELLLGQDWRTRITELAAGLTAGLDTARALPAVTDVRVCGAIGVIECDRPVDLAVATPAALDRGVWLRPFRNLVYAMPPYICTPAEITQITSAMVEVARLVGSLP", "experiment": "Mycobacterium tuberculosis BioA enzyme inhibitor Measured in Biochemical System Using Plate Reader - 2163-02_Inhibitor_Dose_CherryPick_Activity.", "format": "functional, Mycobacterium tuberculosis UT205"}, "[7]": {"experiment": "bead-based luminescence quenchers, dual-tagged ARNT – biochemical, AlphaScreen, cherry-pick, artefact control for ARNT-TACC3 interaction inhibitor project, dose response (AID 651705);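 also: AlphaScreen bead proximity signal that flags compounds interfering with the detection technology; potency reflects signal decrease which marks the compound as an assay artifact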", "format": "functional"}, "Nonstructural protein 1": {"biological_target": "Nonstructural protein 1 (Influenza A virus, UniProt Q194T2)", "sequence (Q194T2 whole entry)": "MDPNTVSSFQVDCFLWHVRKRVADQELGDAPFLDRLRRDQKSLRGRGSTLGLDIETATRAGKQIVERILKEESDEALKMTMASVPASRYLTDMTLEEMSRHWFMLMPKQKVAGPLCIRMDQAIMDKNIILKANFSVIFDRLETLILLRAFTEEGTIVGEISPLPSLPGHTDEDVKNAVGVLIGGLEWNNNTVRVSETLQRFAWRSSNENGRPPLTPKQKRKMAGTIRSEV", "format": "functional, Influenza A virus (A/California/07/2009(H1N1))"}, "[8]": {"experiment": "non-specific 3'UTR reporter inhibition in Clone20-Shn3RL – cell-based, Renilla luciferase, cherry-picked, counter-screen for Shn3 inhibitor project, dose response (AID 624133)", "format": "functional"}, "Protein Wnt-3a": {"biological_target": "Protein Wnt-3a (Mus musculus, UniProt P27467)", "sequence (P27467 whole entry)": "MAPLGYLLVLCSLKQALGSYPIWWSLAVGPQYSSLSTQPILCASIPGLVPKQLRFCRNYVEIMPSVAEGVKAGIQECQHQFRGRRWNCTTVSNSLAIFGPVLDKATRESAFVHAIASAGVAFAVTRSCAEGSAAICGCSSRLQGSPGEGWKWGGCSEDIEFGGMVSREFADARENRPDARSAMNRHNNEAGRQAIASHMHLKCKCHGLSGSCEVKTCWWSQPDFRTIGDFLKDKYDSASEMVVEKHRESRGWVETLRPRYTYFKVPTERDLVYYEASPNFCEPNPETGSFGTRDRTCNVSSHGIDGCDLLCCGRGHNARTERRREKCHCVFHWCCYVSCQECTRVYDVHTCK", "experiment": "antagonism of Wnt3a pathway luciferase reporter – Wnt-LIGHT cells, luminescence, selectivity assay for Gli-SUFU antagonist project, dose response (AID 651570);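 also: Wnt-LIGHT reporter cells stimulated with conditioned medium from Wnt3a-producing cells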", "format": "functional", "details": "read-out: IC50_Mean"}, "[9]": {"experiment": "reduction of Shn3 3'UTR-driven luciferase in osteoblasts – cell-based, Clone20 osteoblasts, firefly luciferase, cherry-picked, dose response (AID 624132)", "format": "functional"}, "[10]": {"experiment": "loss of viability in HepG2 cells – cell-based, CellTiter-Glo, cherry-picked, cytotoxicity control for Shn3 inhibitor project, dose response (AID 624134)", "format": "functional"}, "HEK293 [11]": {"tested_on": "HEK293", "experiment": "NOD2 signaling inhibitors in MDP-stimulated cells, cell-based, uHTS, luminescence (AID 2001)", "format": "functional", "details": "Homo sapiens"}, "HEK293 [12]": {"tested_on": "HEK293", "experiment": "inhibition of NOD1-driven NF-kB reporter – cell-based, luminescence, uHTS, primary screen (AID 1578)", "format": "functional", "details": "Homo sapiens"}, "BJ [13]": {"tested_on": "BJ", "experiment": "BJ-TERT-LT-ST fibroblast viability loss – cell-based, RAS-independent, luminescence, dose response (AID 1935);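 also: BJ fibroblasts immortalized with TERT plus LT and ST oncogenes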", "format": "functional", "details": "Homo sapiens"}, "HEK293 [14]": {"tested_on": "HEK293", "experiment": "cells", "format": "functional, cell-based", "details": "Homo sapiens"}, "HEK293 [15]": {"tested_on": "HEK293", "experiment": "cells", "format": "functional, cell-based", "details": "Homo sapiens", "remark": "listed apart in the source"}}, "note": "The source made the active and inactive calls.", "data": [{"smiles": "C[C@@H]1C[C@H]2OC(=O)C3(CO3)[C@H]2[C@H](O)[C@]2(C)C(=O)C3OC3[C@@H]12", "note": "(some centres not stated)", "values": [{"measurement": "EC50", "setting": "[1]", "result": "14.2 µM (active)"}, {"measurement": "EC50", "setting": "BJ [2]", "result": "> 133 µM (inactive)"}, {"measurement": "EC50", "setting": "BJ [3]", "result": "14.3 µM (active)"}, {"measurement": "CC50", "setting": "[4]", "result": "15.9 µM (active)"}, {"measurement": "EC50", "setting": "BJ [5]", "result": "17 µM (active)"}]}, {"smiles": "O=C1CCCc2c1cc(C(=O)NCc1ccco1)c(=O)n2-c1ccc(Cl)cc1", "values": [{"measurement": "AC50", "setting": "[6]", "result": "3.08 µM (active)"}]}, {"smiles": "Cc1ccc(-n2ncc3c2CC(C)(C)CC3NC(=O)CCc2cccnc2)cc1", "note": "(configuration not stated)", "values": [{"measurement": "AC50", "setting": "[6]", "result": "9.11 µM (active)"}]}, {"smiles": "NC(=NOC(=O)Cc1ccc([N+](=O)[O-])cc1)c1ccccn1", "values": [{"measurement": "AC50", "setting": "[7]", "result": "78.8 µM (active)"}, {"measurement": "IC50", "setting": "Nonstructural protein 1", "result": "32.1 µM (active)"}]}, {"smiles": "CC(Sc1nc2ccccc2c(=O)n1C)C(=O)NC1CCCCC1C", "note": "(configuration not stated)", "values": [{"measurement": "AC50", "setting": "[8]", "result": "3.78 µM (active)"}, {"measurement": "IC50", "setting": "Protein Wnt-3a", "result": "4.15 µM (active)"}, {"measurement": "AC50", "setting": "[9]", "result": "3.46 µM (active)"}, {"measurement": "AC50", "setting": "[10]", "result": "26.2 µM (active)"}]}, {"smiles": "Cc1ccc(Nc2nc(N)nc(CCl)n2)c(C)c1", "values": [{"measurement": "EC50", "setting": "[1]", "result": "0.423 µM (active)"}, {"measurement": "EC50", "setting": "BJ [2]", "result": "4.45 µM (active)"}, {"measurement": "EC50", "setting": "BJ [3]", "result": "1.05 µM (active)"}, {"measurement": "IC50", "setting": "HEK293 [11]", "result": "10.5 µM (inactive)"}, {"measurement": "EC50", "setting": "HEK293 [12]", "result": "13.9 µM (active)"}, {"measurement": "EC50", "setting": "BJ [13]", "result": "10.4 µM (active)"}, {"measurement": "EC50", "setting": "BJ [5]", "result": "< 0.12 µM (active)"}, {"measurement": "IC50", "setting": "HEK293 [14]", "result": "12.8 µM (active)"}, {"measurement": "IC50", "setting": "HEK293 [15]", "result": "> 20 µM (inactive)"}]}]}
